The subject of one data set is calf skin collagen. The data set is described as follows: Incubation of other proteins with the purified protease: collagen. Type of data set: biochemical. The note with it: 0.4 mg/ml, undiluted barium-preincubated protease, 1 M urea, pH 8.0, 24 hours at 37° C.
Data set [1] is described as follows: Stability of the protease in solution. Format: physicochemical. The text has this: In the absence of these ions the protease was quite stable in solution, and thus it was possible to purify the enzyme by chromatographic procedures taking place for several days at room temperature.
The test system of the next data set is BSA. The data set is described as follows: Incubation of other proteins with the purified protease: BSA. Type of data set: biochemical. The settings on record: 0.2 mg/ml, undiluted barium-preincubated protease, 1 M urea, pH 8.0, 24 hours at 37° C.
The nature of data set [2]: Plasmin activity of the protease preparation with chromogenic substrate. Format: biochemical. The note with it: preparation after copper chelate affinity chromatography. The source says: Thus, it was necessary to exclude the possibility that the protease preparation might effect a degradation of the von Willebrand factor multimers due to plasmin present in the preparation rather than as a result of the vWF-specific protease.

For another data set, the system named is vWF from cryoprecipitate. Briefly: Degradation of plasmatic vWF (cryoprecipitate, highest molecular weight multimers) by vWF protease. Type of data set: biochemical, human.
The test system of the next data set is human fibrinogen. The data set is described as follows: Incubation of other proteins with the purified protease: fibrinogen. Type of data set: biochemical. The settings on record: 0.4 mg/ml, undiluted barium-preincubated protease, 1 M urea, pH 8.0, 24 hours at 37° C.
For data set [3], the system named is Recombinant vWF factor (r-vWF). The data set is described as follows: Proteolytic fragmentation of recombinant vWF by the vWF protease preparation. Format: biochemical. How it is done:
The buffer system which had been sufficiently optimized for the instant assaying system thus comprised a dialysis Solution with 1 M urea in 5 mM Tris-HCl at pH 8. Full activation of the protease was achieved by preincubation for 5 minutes at 37° C. with 10 mM barium chloride. In a typical experiment, 50 μl activated protease solution and 100 μl substrate solution were carefully placed on a floating membrane, and incubated in a closed tube for 24 h in a dry oven at 37° C.
Recombinant vWF factor (r-vWF), produced according to FEBS-Letters 375, 259-262 (1995) with a concentration of 104 U (Ag)/ml in 20 mM TBS buffer, pH 8.3, was incubated as described above with the vWF protease preparation according to the invention.
Analysis of the r-vWF and its proteolytic degradation products was performed on 1% and 2% agarose gels, also according to the method of Ruggeri et al. (Blood 57 (1981), 1140-1143). The vWF multimers were made visible by immunoenzymatic staining according to Aihara et al. (Thromb. Haemostas. 55 (1986), 263-267). A rabbit-anti-von Willebrand factor-antiserum (from Dakopatts, Glostrup, Denmark) was used as the primary antibody, and an alkaline phosphatase-conjugated, affinity-purified goat-anti-rabbit IgG H+L-antibody (from Axell Accurate Chemical and Scientific Corp, Westburg, N.Y.) served as the secondary antibody. […]

The subject of data set [4] is vWF. Briefly: Polypeptide subunits and N-terminal sequence of vWF degraded by the purified protease. Type of data set: biochemical, human. The settings on record: from N-terminal sequences of 250, 170 and 140 kD bands. How it is done: For analysis of the amino acid composition and of amino acid sequence, the unreduced peak fraction of the protease and the reduced vWF fragments were dialyzed against 1 mM EDTA, were lyophilized, and were redissolved in 1/50 of the original volume before SDS-PAGE. The HMW protein bands were electrotransferred from the gel to a PVDF (polyvinyliden-difluoride) membrane (BioRad) for 6 hours at 26 V and 0.4 A, using 0.05% SDS, 10% methanol, 0.05 M boric acid, pH 9.0, as transfer buffer. After transfer, the membrane was stained with Coomassie-Blue in 40% methanol, destained in 40% methanol and 10% acetic acid, and air-dried. The excised bands were transferred to the blot cartridge of the Applied Biosystems Model 477A sequenator, which was equipped with on-line high-performance liquid chromatography for analysis of phenylthiohydantoin derivatives, For analysis of amino acid compositions, the protein bands were hydrolyzed in the gas phase over 6N HCl for 22 hours at 110° C. The amino acids were extracted from the PVDF membrane with 70% 0.1 N HCl/30% methanol and were determined by high-performance liquid chromatography as phenylthiocarbamyl derivatives. The amino acid composition of the unreduced protein band coeluted from the Sephacryl S-300 HR column together with the protease activity is shown in Table 1. […]

The nature of data set [5]: Stability of purified vWF fractions on dialysis incubation. The settings on record: fractions 12 to 20, 24 h dialysis incubation at 37° C., absence of inhibitors, citrate/NaCl buffer or 1 M urea buffer. Type of data set: physicochemical. How it is done:
vWF was purified by gal filtration of human cryoprecipitate, obtained from 1 l citrated plasma, an a 2.6×35-cm column of Sepharose CL-2B (Pharmacia, Uppsala, Sweden). Elution was performed with 0.13 M sodium chloride, 0.01 M citrate, 0.01 M Tris-HCl, pH 7.4. Fractions of 6 ml were collected at a flow rate of 24 ml/h. vWF antigen was measured by ELISA by using polyclonal rabbit antiserum against human vWF (RAHu/FVIII, from Nordic (Tillburg, The Netherlands), peroxidase-labeled rabbit antihuman-vWF, mouse monoclonal antibody against rabbit IgG (M737), and the kit for immunostaining (K670) (all from Dako (Glostrup, Denmark)), according to the instructions included with the kit.
SDS agarose gels of these assays are illustrated in FIG. 2 (panels A and B).

A further data set relates to plasmatic vWF. The data set is described as follows: Degradation of plasmatic vWF (cryoprecipitate) with plasmin. Format: biochemical, human. The settings on record: overnight digestion.
Another data set concerns r-vWF. The data set is described as follows: Degradation of r-vWF with plasmin. Type of data set: biochemical.
Data set [6] has as its system vWF. The settings on record: after cleavage with plasmin; cited from earlier work.

On to “protease: von Willebrand factor cleaving protease purified from human plasma, named multimerase; converts singlet vWF to satellite structure”, for which, in the data set on calf skin collagen, the “degradation of calf skin collagen” value was “no degradation”. In data set [1] (in the absence of calcium, strontium and barium ions), the “stability of the protease in solution” value is recorded as “quite stable”. The “protease activity after prolonged preincubation” value in data set [1] (prolonged preincubation with calcium, strontium and barium, even at physiological salt and without urea) is “loss of protease activity”. Besides, the “degradation of BSA” value in the data set with BSA was “no degradation”. In addition, the plasmin activity in data set [2] is 0.2 U/ml. Also, the “multimer pattern of cryoprecipitate vWF on incubation with vWF protease” value in the data set on vWF from cryoprecipitate (cryoprecipitate) was “loss of multimers could be observed over time”. For the same molecule, the “multimer pattern of highest molecular weight vWF multimers preparation with vWF protease” value in the data set on vWF from cryoprecipitate (laboratory preparation 10 U (Ag)/ml in 20 mm TBS buffer, pH 8.3) is reported as “clear shift towards lower molecular weight multimers”. For the same molecule, the “degradation of human fibrinogen” value with human fibrinogen is recorded as “no degradation”. For the same molecule, the “multimer pattern of r-vWF after incubation with protease” value in data set [3] (after 3 h) is “loss of the highest multimers”; in data set [3] (after 20 hours) it was “oligomers and multimers could no longer be detected”. Besides, the “peptide bond of vWF cleaved” value in the data set with vWF [4] was found to be 842Tyr-843Met.
Consider “vWF: vWF purified by gel filtration of human cryoprecipitate, fractions 12 to 20”, for which the “stability of vWF (multimer pattern)” value in [5] is reported as “very stable”.

B1: plasmin: human plasmin from Chromogenics, serine protease used as comparison (protein, UniProt P00747 20-580; P00747 581-810, looked up)
Plasmin heavy chain A: EPLDDYVNTQGASLFSVTKKQLGAGSIEECAAKCEEDEEFTCRAFQYHSKEQQCVIMAENRKSSIIIRMRDVVLFEKKVYLSECKTGNGKNYRGTMSKTKNGITCQKWSSTSPHRPRFSPATHPSEGLEENYCRNPDNDPQGPWCYTTDPEKRYDYCDILECEEECMHCSGENYDGKISKTMSGLECQAWDSQSPHAHGYIPSKFPNKNLKKNYCRNPDRELRPWCFTTDPNKRWELCDIPRCTTPPPSSGPTYQCLKGTGENYRGNVAVTVSGHTCQHWSAQTPHTHNRTPENFPCKNLDENYCRNPDGKRAPWCHTTNSQVRWEYCKIPSCDSSPVSTEQLAPTAPPELTPVVQDCYHGDGQSYRGTSSTTTTGKKCQSWSSMTPHRHQKTPENYPNAGLTMNYCRNPDADKGPWCFTTDPSVRWEYCNLKKCSGTEASVVAPPPVVLLPDVETPSEEDCMFGNGKGYRGKRATTVTGTPCQDWAAQEPHRHSIFTPETNPRAGLEKNYCRNPDGDVGGPWCYTTNPRKLYDYCDVPQCAAPSFDCGKPQVEPKKCPGR
Plasmin light chain B: VVGGCVAHPHSWPWQVSLRTRFGMHFCGGTLISPEWVLTAAHCLEKSPRPSSYKVILGAHQEVNLEPHVQEIEVSRLFLEPTRKDIALLKLSSPAVITDKVIPACLPSPNYVVADRTECFITGWGETQGTFGAGLLKEAQLPVIENKVCNRYEFLNGRVQSTELCAGHLAGGTDSCQGDSGGPLVCFEKDKYILQGVTSWGLGCARPNKPGVYVRVSRFVTWIEGVMRNN
modifications: Plasmin
notes: human plasmin from Chromogenics, serine protease used as comparison
As to B1, the “degradation of plasmatic vWF” value in the data set on plasmatic vWF is recorded as “completely degraded”. Moreover, in the data set with r-vWF (overnight digestion), the “degradation of recombinant vWF” value was “completely degraded”. Besides, the “degradation of r-vWF multimers (kinetic examination)” value in the data set on r-vWF (plasmin 0.2 U/ml admixed 1:1 with r-vWF, 37° C.) is “successive degradation of the multimers over 29 h”. The “degradation of r-vWF” value with r-vWF (plasmin concentration reduced to 1:10) was “degraded more slowly”. Further, in the data set on vWF [6], the “platelet agglutinating activity (ristocetin cofactor) retained by high molecular weight core region of vWF” value is reported as “about 70%”.
